Laboratory results from US8912209B2, “Rock inhibitors” (Amakem NV, priority 2010, dated 2014).

Biological target: T1, ROCKα/ROCKII (Homo sapiens, UniProt O75116)
T1 construct: purchased Upstate Biotechnology 14-451
Assay: ROCK inhibition, Method 2 fluorescence polarization (FP) assay, ROCK IMAP Kit
Format: biochemical
Conditions: 10 μM ATP, read-out: IC50 Meth. 2
Experimental: The inhibition assays were performed with a fluorescence polarization (FP) assay using the commercially available ROCK IMAP Kit from Molecular Devices (Product ID. No. R8093), essentially in accordance with the protocol supplied by the manufacturer. […] The enzyme mix ROCKα/ROCKII was obtained from Upstate Biotechnology (Product ID No 14-451).
In summary, all compounds were screened in the wells of a 384 well plate for enzymatic inhibition with concentrations varying from 100 μM to 0.3 nM using a stepwise 3 (or 2)-fold dilution.
To perform the assay, 1 μl of a solution of the compound to be tested in DMSO (at each concentration) was added to 2 μl of a solution of the enzyme in 10 mM Tris-HCl, 10 mM MgCl2, 0.1% BSA, 0.05% NaN3, pH 7,2. The final concentration of the enzyme was 2.6 nM.
After incubating for 30 minutes at RT, 2 μl of a mixture of ATP and the protein substrate in 10 mM Tris-HCl, 10 mM MgCl2, 0.1% BSA, 0.05% NaN3, pH 7.2 was added. The final concentration of the ATP was 10 μM and final concentration of protein substrate was 0.2 μM.
After incubating for 60 minutes at RT, 12 μl of the IMAP Binding Solution (mix of the IMAP Binding Buffer A (1×) and the IMAP Binding Reagent (from the ROCK IMAP kit)) was added.
The mixture thus obtained (total volume: 17 μl) was incubated for 60 minutes at RT, upon which the fluorescence polarization was measured using an automated plate reader (Perkin Elmer, Model Envision 2100-0010 HTS) with FP filters: excitation filter FITC FP 480 and emission filters FITC FP P-pol 535 and FITC FP S-pol 535 (Perkin-Elmer). The results were fitted to a curve using the XL-Fit algorithm and IC50 values were calculated for each fitted curve, again using the XL-Fit algorithm.

T1 sequence (O75116 whole entry): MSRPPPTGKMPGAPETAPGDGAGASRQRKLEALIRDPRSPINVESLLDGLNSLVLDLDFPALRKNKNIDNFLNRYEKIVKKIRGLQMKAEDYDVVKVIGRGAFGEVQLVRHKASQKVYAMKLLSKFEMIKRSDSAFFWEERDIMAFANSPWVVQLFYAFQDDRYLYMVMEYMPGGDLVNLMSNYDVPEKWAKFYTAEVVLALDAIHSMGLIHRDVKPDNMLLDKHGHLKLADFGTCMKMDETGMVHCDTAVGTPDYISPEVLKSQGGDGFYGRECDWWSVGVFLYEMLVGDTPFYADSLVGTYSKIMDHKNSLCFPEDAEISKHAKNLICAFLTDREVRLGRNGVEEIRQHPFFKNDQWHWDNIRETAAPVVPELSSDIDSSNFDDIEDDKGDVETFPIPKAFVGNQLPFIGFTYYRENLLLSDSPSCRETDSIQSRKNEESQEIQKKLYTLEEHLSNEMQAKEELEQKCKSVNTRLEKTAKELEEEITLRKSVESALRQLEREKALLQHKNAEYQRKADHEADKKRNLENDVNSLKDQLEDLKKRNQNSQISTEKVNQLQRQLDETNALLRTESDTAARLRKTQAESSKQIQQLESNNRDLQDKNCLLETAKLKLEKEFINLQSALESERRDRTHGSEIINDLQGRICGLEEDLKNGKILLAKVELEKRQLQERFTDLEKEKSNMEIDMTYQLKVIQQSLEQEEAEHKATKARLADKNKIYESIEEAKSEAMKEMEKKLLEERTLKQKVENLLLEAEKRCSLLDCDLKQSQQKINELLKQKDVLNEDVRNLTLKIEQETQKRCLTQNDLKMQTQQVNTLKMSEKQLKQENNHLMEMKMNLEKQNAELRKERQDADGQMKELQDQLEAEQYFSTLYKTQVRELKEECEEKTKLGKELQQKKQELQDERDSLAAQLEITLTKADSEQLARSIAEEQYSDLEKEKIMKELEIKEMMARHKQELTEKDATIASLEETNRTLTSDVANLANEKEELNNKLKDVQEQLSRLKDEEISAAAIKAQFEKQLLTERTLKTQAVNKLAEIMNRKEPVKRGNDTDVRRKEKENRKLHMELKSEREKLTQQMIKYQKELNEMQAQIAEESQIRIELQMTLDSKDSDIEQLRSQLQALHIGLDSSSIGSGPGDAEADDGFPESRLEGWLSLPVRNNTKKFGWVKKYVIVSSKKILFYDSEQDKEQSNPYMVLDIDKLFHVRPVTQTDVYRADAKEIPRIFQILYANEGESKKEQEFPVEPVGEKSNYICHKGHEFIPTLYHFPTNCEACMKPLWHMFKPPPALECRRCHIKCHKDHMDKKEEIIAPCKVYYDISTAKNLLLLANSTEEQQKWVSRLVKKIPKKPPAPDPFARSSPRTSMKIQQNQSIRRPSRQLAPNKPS

Compound	IC50 [nM]
COc1ccc(OC(=O)c2cccc(-c3cc(C(=O)Nc4ccncc4F)ccc3C(C)N)c2)cc1OC (stereo not shown) [Compound 78, 2′-(1-Amino-ethyl)-5′-(3-fluoro-pyridin-4-ylcarbamoyl)-biphenyl-3-carboxylic acid 3,4-dimethoxy-phenyl ester]	< 100
COc1cc(OC(=O)c2cccc(-c3cc(C(=O)Nc4ccncc4F)ccc3C(C)N)c2)cc(OC)c1OC (stereo not shown) [Compound 79, 2′-(1-Amino-ethyl)-5′-(3-fluoro-pyridin-4-ylcarbamoyl)-biphenyl-3-carboxylic acid 3,4,5-trimethoxy phenylester]	< 100
COc1cc(OC(=O)c2cccc(-c3cc(C(=O)Nc4ccncc4)ccc3C(C)N)c2)cc(OC)c1OC (stereo not shown) [Compound 80, 2′-(1-Amino-ethyl)-5′-(pyridin-4-ylcarbamoyl)-biphenyl-3-carboxylic acid 3,4,5-trimethoxy-phenyl ester]	100 to 1000
COc1ccc(OC(=O)c2cccc(-c3cc(C(=O)Nc4ccncc4)ccc3C(C)N)c2)c(OC)c1OC (stereo not shown) [Compound 81, 2′-(1-Amino-ethyl)-5′-(pyridin-4-ylcarbamoyl)-biphenyl-3-carboxylic acid 2,3,4-trimethoxy-phenyl ester]	< 100
CSc1ccc(OC(=O)c2cccc(-c3cc(C(=O)Nc4ccncc4)ccc3C(C)N)c2)cc1 (stereo not shown) [Compound 82, 2′-(1-Amino-ethyl)-5′-(pyridin-4-ylcarbamoyl)-biphenyl-3-carboxylic acid 4-methylsulfanyl-phenyl ester]	< 100
CC(N)c1ccc(C(=O)Nc2ccncc2)cc1-c1cccc(C(=O)OCc2c(F)c(F)c(F)c(F)c2F)c1 (stereo not shown) [Compound 83, 2′-(1-Amino-ethyl)-5′-(pyridin-4-ylcarbamoyl)-biphenyl-3-carboxylic acid pentafluoro-phenylmethyl ester]	100 to 1000
CC(N)c1ccc(C(=O)Nc2ccncc2)cc1-c1cccc(C(=O)OCc2ccc(Br)cc2)c1 (stereo not shown) [Compound 84, 2′-(1-Amino-ethyl)-5′-(pyridin-4-ylcarbamoyl)-biphenyl-3-carboxylic acid 4-bromo-benzyl ester]	100 to 1000
CC(N)c1ccc(C(=O)Nc2ccncc2)cc1-c1cccc(C(=O)OCc2ccccc2[N+](=O)[O-])c1 (stereo not shown) [Compound 85, 2′-(1-Amino-ethyl)-5′-(pyridin-4-ylcarbamoyl)-biphenyl-3-carboxylic acid 2-nitro-benzyl ester]	100 to 1000
CC(N)c1ccc(C(=O)Nc2ccncc2)cc1-c1cccc(C(=O)OCCc2ccccc2)c1 (stereo not shown) [Compound 87, 2′-(1-Amino-ethyl)-5′-(pyridin-4-ylcarbamoyl)-biphenyl-3-carboxylic acid phenethyl ester]	100 to 1000
CC(N)c1ccc(C(=O)Nc2ccncc2)cc1-c1cccc(C(=O)OCCc2cccs2)c1 (stereo not shown) [Compound 91, 2′-(1-Amino-ethyl)-5′-(pyridin-4-ylcarbamoyl)-biphenyl-3-carboxylic acid 2-thiophen-2-yl-ethyl ester]	100 to 1000
CC(N)c1ccc(C(=O)Nc2ccncc2)cc1-c1cccc(C(=O)OCCc2ccsc2)c1 (stereo not shown) [Compound 92, 2′-(1-Amino-ethyl)-5′-(pyridin-4-ylcarbamoyl)-biphenyl-3-carboxylic acid 2-thiophen-3-yl-ethyl ester]	100 to 1000
CC(N)c1ccc(C(=O)Nc2ccncc2)cc1-c1cccc(C(=O)OCCc2ccccn2)c1 (stereo not shown) [Compound 93, 2′-(1-Amino-ethyl)-5′-(pyridin-4-ylcarbamoyl)-biphenyl-3-carboxylic acid 2-pyridin-2-yl-ethyl ester]	< 100
CC(N)c1ccc(C(=O)Nc2ccncc2)cc1-c1cccc(C(=O)OCC2CCc3ccccc3C2)c1 (stereo not shown) [Compound 94, 2′-(1-Amino-ethyl)-5′-(pyridin-4-ylcarbamoyl)-biphenyl-3-carboxylic acid 1,2,3,4-tetrahydro-naphthalen-2-ylmethyl ester]	100 to 1000
